Measurements reported in patent US4898858A, “Cephalosporin derivatives and antibiotics containing the same” (Meiji Seika Kaisha Ltd., priority 1985, dated 1990).
In brackets after ≈: the same amount, converted by molar mass.

Key:
Experiment in all cases: minimum growth-inhibitory concentration (MIC) in vitro
[1] = tested on: Staphylococcus aureus 606; type: cell-based
[2] = tested on: Staphylococcus aureus 606 E-25; type: cell-based; conditions: 606E25
[3] = tested on: Staphylococcus aureus 209P JC-1; type: cell-based
[4] = tested on: Streptocuccus faecalis W-75; type: cell-based
Escherichia coli ML1410 = type: cell-based
[5] = tested on: Escherichia coli NIHJ JC-2; type: cell-based; conditions: NIHJJC2; Escherichia coli NIHJ JC-2; in vitro; read-out: MIC-value
Escherichia coli No.29 = type: cell-based
[6] = tested on: Klebsiella pneumoniae GN-69; type: cell-based; conditions: GN69; Klebsiella pneumoniae GN-69; in vitro; read-out: MIC-value
[7] = tested on: Klebsiella pneumoniae GN-118; type: cell-based; conditions: GN118
[8] = tested on: Salmonella typhimurium LT-2; type: cell-based; conditions: Salmonella enterica
[9] = tested on: Salmonella enteritidis No.11; type: cell-based; conditions: Salmonella enterica
Proteus vulgais GN-76 = type: cell-based
Proteus morganii 1510 = type: cell-based; conditions: Morganella morganii
Proteus rettgeri GN-624 = type: cell-based; conditions: Providencia rettgeri, GN624
Proteus rettgeri J-0026 = type: cell-based; conditions: Providencia rettgeri, J0026
[10] = tested on: Enterobacter Cloacae G-0005; type: cell-based
[11] = tested on: Enterobacter Cloacae G-0008; type: cell-based
[12] = tested on: Serratia marcescens GN-10857; type: cell-based; conditions: GN10857
[13] = tested on: Serratia marcescens GN-629; type: cell-based; conditions: GN629
[14] = tested on: Pseudomonas aeruginosa GN-10362; type: cell-based; conditions: GN10362
[15] = tested on: Pseudomonas aeruginosa MB-3833; type: cell-based; conditions: MB3833
[16] = tested on: Pseudomonas aeruginosa E-2; type: cell-based; conditions: E2
[17] = tested on: Proteus vulgais GN-76/C-1; conditions: Proteus vulgaris, GN76, read-out: MIC-value

Row | SMILES | MIC [1] [µg/mL] | MIC [2] [µg/mL] | MIC [3] [µg/mL] | MIC [4] [µg/mL] | MIC (Escherichia coli ML1410) [µg/mL] | MIC [5] [µg/mL] | MIC (Escherichia coli No.29) [µg/mL] | MIC [6] [µg/mL] | MIC [7] [µg/mL] | MIC [8] [µg/mL] | MIC [9] [µg/mL] | MIC (Proteus vulgais GN-76) [µg/mL] | MIC (Proteus morganii 1510) [µg/mL] | MIC (Proteus rettgeri GN-624) [µg/mL] | MIC (Proteus rettgeri J-0026) [µg/mL] | MIC [10] [µg/mL] | MIC [11] [µg/mL] | MIC [12] [µg/mL] | MIC [13] [µg/mL] | MIC [14] [µg/mL] | also measured
1 | CC(O/N=C(\C(=O)N[C@@H]1C(=O)N2C(C(=O)[O-])=C(CSc3cc[n+](CCF)cc3)CS[C@H]12)c1csc(N)n1)C(=O)O (stereo partly drawn) [Example 1, (6R,7R)-7-{(Z)-2-(2-Aminothiazol-4-yl)-2-(1-carboxyethoxyimino)acetamido}-3-[{1-(2-fluoroethyl)pyridinium}-4-ylthiomethyl]-ceph-3-em-4-carboxylate] | 3.13 (≈ 5.13 µM) | 3.13 (≈ 5.13 µM) | 3.13 (≈ 5.13 µM) | 3.13 (≈ 5.13 µM) | 0.1 (≈ 0.164 µM) | 0.1 (≈ 0.164 µM) | 0.1 (≈ 0.164 µM) | < 0.025 | < 0.025 | < 0.025 | < 0.025 | 0.05 (≈ 0.0819 µM) | 1.56 (≈ 2.55 µM) | 0.05 (≈ 0.0819 µM) | 0.1 (≈ 0.164 µM) | 0.05 (≈ 0.0819 µM) | 0.1 (≈ 0.164 µM) | 0.78 (≈ 1.28 µM) | 0.1 (≈ 0.164 µM) | 1.56 (≈ 2.55 µM) | MIC [15]: 1.56 µg/mL (≈ 2.55 µM); MIC [16]: 1.56 µg/mL (≈ 2.55 µM); MIC [17]: 0.1 µg/mL (≈ 0.164 µM)
2 | CCC(O/N=C(\C(=O)N[C@@H]1C(=O)N2C(C(=O)[O-])=C(CSc3cc[n+](CCF)cc3)CS[C@H]12)c1csc(N)n1)C(=O)O (stereo partly shown) [Example 4] | 6.25 (≈ 10 µM) | 6.25 (≈ 10 µM) | 6.25 (≈ 10 µM) | 6.25 (≈ 10 µM) | 0.39 (≈ 0.624 µM) | 0.39 (≈ 0.624 µM) | 0.39 (≈ 0.624 µM) | 0.1 (≈ 0.16 µM) | 0.1 (≈ 0.16 µM) | 0.2 (≈ 0.32 µM) | < 0.025 | 0.05 (≈ 0.08 µM) | 3.13 (≈ 5.01 µM) | 0.05 (≈ 0.08 µM) | 0.78 (≈ 1.25 µM) | 0.39 (≈ 0.624 µM) | 0.39 (≈ 0.624 µM) | 3.13 (≈ 5.01 µM) | 0.78 (≈ 1.25 µM) | 3.13 (≈ 5.01 µM) | MIC [15]: 3.13 µg/mL (≈ 5.01 µM); MIC [16]: 3.13 µg/mL (≈ 5.01 µM); MIC [17]: 0.2 µg/mL (≈ 0.32 µM)
3 | Nc1nc(/C(=N/OC(C(=O)O)C2CCCCC2)C(=O)N[C@@H]2C(=O)N3C(C(=O)[O-])=C(CSc4cc[n+](CCF)cc4)CS[C@H]23)cs1 (stereo partly shown) [Example 5] | 3.13 (≈ 4.61 µM) | 3.13 (≈ 4.61 µM) | 1.56 (≈ 2.3 µM) | 3.13 (≈ 4.61 µM) | 3.13 (≈ 4.61 µM) | 3.13 (≈ 4.61 µM) | 3.13 (≈ 4.61 µM) | 1.56 (≈ 2.3 µM) | 1.56 (≈ 2.3 µM) | 3.13 (≈ 4.61 µM) | 0.2 (≈ 0.295 µM) | 0.78 (≈ 1.15 µM) | 6.25 (≈ 9.21 µM) | 0.39 (≈ 0.575 µM) | 3.13 (≈ 4.61 µM) | 3.13 (≈ 4.61 µM) | 3.13 (≈ 4.61 µM) | 6.25 (≈ 9.21 µM) | 6.25 (≈ 9.21 µM) | 12.5 (≈ 18.4 µM) | MIC [15]: 12.5 µg/mL (≈ 18.4 µM); MIC [16]: 12.5 µg/mL (≈ 18.4 µM); MIC [17]: 0.78 µg/mL (≈ 1.15 µM)

More lines, main results first:

Row | MIC [1] [µg/mL] | MIC [2] [µg/mL] | MIC [3] [µg/mL] | MIC [4] [µg/mL] | MIC (Escherichia coli ML1410) [µg/mL] | MIC [5] [µg/mL] | MIC (Escherichia coli No.29) [µg/mL] | MIC [6] [µg/mL] | MIC [7] [µg/mL] | MIC [8] [µg/mL] | MIC [9] [µg/mL] | MIC (Proteus vulgais GN-76) [µg/mL] | MIC (Proteus morganii 1510) [µg/mL] | MIC (Proteus rettgeri GN-624) [µg/mL] | MIC (Proteus rettgeri J-0026) [µg/mL] | MIC [10] [µg/mL] | MIC [11] [µg/mL] | MIC [12] [µg/mL] | MIC [13] [µg/mL] | MIC [14] [µg/mL] | SMILES | also measured
4 | 6.25 (≈ 10.2 µM) | 6.25 (≈ 10.2 µM) | 3.13 (≈ 5.13 µM) | 3.13 (≈ 5.13 µM) | 0.2 (≈ 0.328 µM) | 0.1 (≈ 0.164 µM) | 0.1 (≈ 0.164 µM) | 0.05 (≈ 0.0819 µM) | 0.05 (≈ 0.0819 µM) | 0.05 (≈ 0.0819 µM) | < 0.025 | 0.1 (≈ 0.164 µM) | 1.56 (≈ 2.55 µM) | 0.1 (≈ 0.164 µM) | 0.2 (≈ 0.328 µM) | 0.2 (≈ 0.328 µM) | 0.2 (≈ 0.328 µM) | 3.13 (≈ 5.13 µM) | 0.39 (≈ 0.639 µM) | 3.13 (≈ 5.13 µM) | C[C@@H](O/N=C(\C(=O)N[C@@H]1C(=O)N2C(C(=O)[O-])=C(CSc3cc[n+](CCF)cc3)CS[C@H]12)c1csc(N)n1)C(=O)O [Example 2, (6R,7R)-7-[(Z)-2-(2-Aminothiazol-4-yl)-2-{(1R)-carboxyethoxyimino}acetamido]-3-[{1-(2-fluoroethyl)pyridinium}-4-ylthiomethyl]-ceph-3-em-4-carboxylate] | MIC [15]: 3.13 µg/mL (≈ 5.13 µM); MIC [16]: 3.13 µg/mL (≈ 5.13 µM); MIC [17]: 0.1 µg/mL (≈ 0.164 µM)
5 | 3.13 (≈ 5.13 µM) | 3.13 (≈ 5.13 µM) | 1.56 (≈ 2.55 µM) | 1.56 (≈ 2.55 µM) | 0.1 (≈ 0.164 µM) | 0.1 (≈ 0.164 µM) | 0.1 (≈ 0.164 µM) | 0.05 (≈ 0.0819 µM) | < 0.025 | < 0.025 | < 0.025 | < 0.025 | 1.56 (≈ 2.55 µM) | 0.05 (≈ 0.0819 µM) | 0.1 (≈ 0.164 µM) | 0.05 (≈ 0.0819 µM) | 0.1 (≈ 0.164 µM) | 0.78 (≈ 1.28 µM) | 0.2 (≈ 0.328 µM) | 1.56 (≈ 2.55 µM) | C[C@H](O/N=C(\C(=O)N[C@@H]1C(=O)N2C(C(=O)[O-])=C(CSc3cc[n+](CCF)cc3)CS[C@H]12)c1csc(N)n1)C(=O)O [Example 3, (6R,7R)-7-[(Z)-2-(2-Aminothiazol-4-yl)-2-{(1S)-carboxyethoxyimino}acetamido]-3-[{1-(2-fluoroethyl)pyridinium}-4-ylthiomethyl]-ceph-3-em-4-carboxylate] | MIC [15]: 1.56 µg/mL (≈ 2.55 µM); MIC [16]: 1.56 µg/mL (≈ 2.55 µM); MIC [17]: 0.05 µg/mL (≈ 0.0819 µM)
